Results: patent US9913916B2, “Asymmetric bifunctional silyl monomers and particles thereof as prodrugs and delivery vehicles for pharmaceutical, chemical and biological agents” (The University of North Carolina at Chapel Hill, priority 2010, dated 2018)

Assay type: physicochemical
Description: A model degradation of an ABS pro-drug of gemcitabine attached via a di-isopropyl silyl ether linkage (iPr-GEM) was conducted.
Asymmetric bifunctional silyl ether pro-drugs were synthesized and analyzed as potential materials for controlled drug delivery in nanoparticles. Using one-step synthesis, numerous pro-drugs from the chemotherapeutics camptothecin, dasatinib, and gemcitabine were prepared. These ABS pro-drugs were placed under acidic conditions, such as those found […], and subsequent to degradation of the reversible covalent linkage(s), the pro-drug reverted back to the original active form of the chemotherapeutic. […] The rate of release increased as the steric bulk of the substituent on the Si atom decreased; Rate of Release: Et-GEM>iPr-GEM>>tBu-GEM). […] These ABS pro-drugs can be incorporated into nanoparticles and medical devices capable of releasing drugs in a controlled and tunable fashion.

SMILES | degradation of silyl ether linkage on exposure to acid
C=CC(=O)OCCO[Si](CC)(CC)O[C@]1(CC)C(=O)OCc2c1cc1n(c2=O)Cc2cc3ccccc3nc2-1 [Et-CPT, Diethyl ABS of Camptothecin] | degraded to yield both unmodified camptothecin and HEA
C=CC(=O)OCCO[Si](OC[C@H]1O[C@@H](n2ccc(N)nc2=O)C(F)(F)[C@@H]1O)(C(C)C)C(C)C [iPr-GEM, Diisopropyl ABS of Gemcitabine] | acid sensitive and reverts back to the original starting materials
